Data set [1] concerns Pseudomonas aeruginosa MDR clinical isolates. Briefly: Pyocyanin production in MDR clinical isolates. In kind it is cell-based. The following applies: 10 μM; listed as D88. As to the method: Percentage of pyocyanin production is presented in presence of 10 μM of D57 or D88 compounds. Tukey's multiple comparisons test p<0.0001.
Pyocyanin levels were determined by measuring OD520nm of chloroform-extracted cultures.

The test system of data set [2] is P. aeruginosa MDR clinical isolates. Put plainly: AT/P cell formation in MDR clinical isolates. In kind it is cell-based. The following applies: 10 μM; MDR clinical isolates incl. mucoid strain from CF patients. As to the method:
(§1) Statistical significance to the control was assessed using one-way ANOVA+Dunnett's post-test. P<0.001-0.005.
(§2) AT/P efficacy of compounds using CFU plating was assessed by growning over-night, cultures diluted 1:100 in triplicate in fresh LB medium in the presence or absence of inhibitor, and re-grown to an OD600 of 2.0 while shaking under aeration at 37° C. Before the antibiotic treatment, aliquots were plated to obtain reference colony counts. […] At 24-h and 48-h time points, the number of surviving bacteria were assessed by plating. The survival fraction of AT/P cells was calculated by dividing the number of surviving bacteria by the number of live bacteria that were present before the antibiotic treatment (reference datum) and expressed as a mean (±SD) of at least three replicate experiments. Using the same CFU plating assay, the efficacy of all compounds identified will be tested against additional antibiotic classes: b-lactams (ceftazidime, cefepime and imipenem), quinolones (ciprofloxacin, moxifloxacin, and levofloxacin), and aminoglycosides (gentamicin and tobramycicn).

Another data set is described as follows: Solubility. The class given is physicochemical. The following applies: initial solubility studies; listed as D88. From the text: FIGS. 6A-6E show pharmacological properties of a representative group of MvfR inhibitors.
For data set [3], the system named is MvfR regulon. Put plainly: pqsA gene expression (pqsA-GFP reporter). In kind it is cell-based, P. aeruginosa. The following applies: Pseudomonas aeruginosa; for activity at 10 µM: read-out: pqsA @10 uM (%), compound at 10 uM.
Another data set relates to PA clinical isolate PA14. Briefly: Biofilm formation (microtiter biofilm assay). In kind it is cell-based, P. aeruginosa. The following applies: 10 μM. The protocol: as §1
Inhibition of biofilm formation was assessed by quantifying initiation of biofilm formation via assessment of surface adhesion of PA using the microtiter biofilm assay as described in O'Toole, G A. J. Vis. Exp. 2011, Microtiter Dish Biofilm Formation Assay. Using single optimized agents, this assay allowed for various concentrations of each compound and several incubation times to be investigated in an HTS manner.

Another data set concerns Acenitobacter baumanii. Put plainly: Activity against other bacterial pathogens (preliminary). The class given is cell-based.
For a further data set, the target named is T1, MvfR (Pseudomonas aeruginosa, UniProt Q9I4X0).
T1 construct: made in house
Briefly: Surface plasmon resonance (SPR) binding to purified MvfR co-inducer binding domain. The arrangement: species or system P. aeruginosa. As to the method: Compounds identified to interfere with MvfR were confirmed for the direct physical interaction with this protein. Using SPR, the percentage of compound's binding to the purified MvfR protein was analyzed and used to determine the binding parameters (KD, kon and koff)—thus determining the kinetic of interaction with MvfR.
The recombinant MvfR co-inducer binding domain was purified using Ni-NTA chromatography, as previously reported (see e.g., Xiao et al, Microbiology, 2006, 152:1679-1686; Starkey et al, PLoS Pathog. 2014, 10:e1004321; and Kefala et al, Acta. Crystallogr. Sect. F. Struct. Biol. Cryst. Commun. 2012, 68:695-697). The purified protein was immobilized with the amine coupling method at a target level of 5000 RU on Chip. SPR was performed according to previously reported procedures (see e.g., Starkey et al, PLoS Pathog. 2014, 10:e1004321; Maura et al, ACS Chemical Biology, 2017, 12:1435-1443; and Kitao et al, MBIO, in press). […] Table 3 lists the steady-state KD data measured by SPR.

The subject of data set [4] is adhesive intestinal E. coli. Briefly: Activity against other bacterial pathogens (preliminary). The class given is cell-based.
Data set [5] has as its system MvfR regulon. Put plainly: Quantification of pyocyanin (OD520nm of chloroform-extracted cultures). In kind it is cell-based, P. aeruginosa. The following applies: Pseudomonas aeruginosa; for IC50: read-out: IC50 pyocyanin (μM); for activity at 50 µM: read-out: pyocyanin @50 uM (%), compound at 50 uM.
In data set [6] the test system is Caco2 intestinal epithelial cells. Put plainly: Survival of Caco2 cells after compound exposure. In kind it is cell-based. The following applies: 25 μM, 3 hours exposure.
Data set [7] is described as follows: Pharmacokinetics in mouse plasma and lung after single subcutaneous injection. The following applies: for stability in vivo (serum concentration): 10 mg/kg subcutaneous, over 24 h. In kind it is in vivo, mice. As to the method: FIGS. 1F-1G show pharmacokinetics measured in mouse plasma (FIG. 1F) and lung (FIG. 1G) following a single subcutaneous injection of Compounds 53, 54, or 72 at 10 mg/kg.

For data set [8], the system named is MvfR regulon. Put plainly: LC/MS quantification of HAQs and related molecules in bacterial culture supernatants. The following applies: Pseudomonas aeruginosa. In kind it is cell-based, P. aeruginosa.
Another data set deals with PA14. Briefly: Antibiotic tolerance/persister (AT/P) cell formation, meropenem, CFU plating. The class given is cell-based, P. aeruginosa. The following applies: 50 μM compound. The protocol:
Wild type (PA14) P. aeruginosa was grown in liquid culture with or without Compound 54 and treated with meropenem according to published procedures (see e.g., Starkey et al, PLoS Pathog. 2014, 10:e1004321). Data are expressed as fraction of original culture surviving antibiotic treatment.
as §2

The mark [9] stands for this setting: mean KD value, SPR, mean over the compounds named.

Two molecules from patent US11731946B2, “Broad spectrum antivirulence, anti-persistence compounds” (priority 2017, dated 2023) can be followed below.

≈ marks a conversion by molar mass, not a printed value. Where “and” joins values, the source holds several entries; their conditions need not be identical. Equal entries are not always repeated. Entries after “also recorded” stand apart in the source; their conditions may differ.

T1 sequence (Q9I4X0 91-332): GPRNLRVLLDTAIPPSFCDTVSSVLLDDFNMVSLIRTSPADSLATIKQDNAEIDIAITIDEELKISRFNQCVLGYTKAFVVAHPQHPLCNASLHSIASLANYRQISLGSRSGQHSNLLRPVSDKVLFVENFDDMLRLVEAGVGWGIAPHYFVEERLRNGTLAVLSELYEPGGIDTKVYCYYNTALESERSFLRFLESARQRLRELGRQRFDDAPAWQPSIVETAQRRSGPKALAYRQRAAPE

Take `N#Cc1ccc(NC(=O)C(F)C(=O)Nc2ccc(Oc3ccccc3)cc2)cc1` (stereo not shown) [Compound 103]: the “activity on pyocyanin production in MDR clinical isolates” value in [1] is listed as “highly active; also recorded: confirmed”. In [2], the “activity against antibiotic tolerant/persister cell formation” value is recorded as “highly active”. In addition, the solubility (usually the dissolved amount per volume that the medium holds) in “Solubility” was found to be 190 µg/mL (≈ 488 µM). For the same molecule, the activity at 10 µM in the data set on MvfR regulon [3] amounted to 1.95%. Further, in the data set with PA clinical isolate PA14, the “activity against biofilm formation” value is listed as “highly active”. Besides, the “potency against Acenitobacter baumanii” value with Acenitobacter baumanii was “potent”. In addition, binding on MvfR (setting [9]) was characterised by a dissociation constant (Kd) of 0.25 µM. Also, in data set [4], the “potency against adhesive intestinal E. coli” value is on record as “potent”. In addition, in the data set with MvfR regulon [5], the IC50 (in general, the concentration needed to halve the response being measured) worked out at 0.95 µM and the activity at 50 µM was 5.58%. Besides, the activity at 1 µM with MvfR regulon [5] (read-out: pyocyanin @1 uM (%), compound at 1 uM) was determined as 28.1%. Moreover, the activity at 10 µM in the data set with MvfR regulon [5] (read-out: pyocyanin @10 uM (%), compound at 10 uM) was found to be 4.4%.
For the molecule `N#Cc1ccc(NC(=O)CC(=O)Nc2ccc(Cl)cc2)cc1` [Compound 53], in data set [6], the “toxicity to Caco2 (survival)” value is recorded as “not toxic”. For the same molecule, the results for the “stability in vivo (serum concentration)” value in data set [7] and in [7] (listed as D41) were “stable in vivo” and “highly stable in vivo”, respectively. The “pharmacokinetics (in words)” value in [7] (mouse, in vivo) is given as “promising pharmacokinetics”. In addition, the IC50 stood at 5.6 µM in the data set on MvfR regulon [8] (PA14, read-out: IC50 2-AA (μM)); 9.1 µM in the data set with MvfR regulon [8] (PA14, read-out: IC50 DHQ (μM)); 10.3 µM with MvfR regulon [8] (PA14, read-out: IC50 HHQ (μM)); 8.3 µM with MvfR regulon [8] (PA14, read-out: IC50 PQS (μM)); 14.5 µM with MvfR regulon [8] (read-out: IC50 AA (increase; μM)); 7.3 µM with MvfR regulon [8] (read-out: IC50 HQNO (μM)). Further, the IC50 in the data set on MvfR regulon [3] (read-out: IC50 pqsA (μM)) came to 1.25 µM; in the data set on MvfR regulon [5], 2.4 µM. The activity at 50 µM with MvfR regulon [8] (read-out: 2-AA @50 uM) came out at 5.87%; in the data set on MvfR regulon [8] (read-out: AA @50 uM) it was 739%; in the data set on MvfR regulon [8] (read-out: DHQ @50 uM), 10.3%; in the data set on MvfR regulon [8] (read-out: HHQ @50 uM (%)), 1.63%; in the data set on MvfR regulon [8] (read-out: HQNO @50 uM (%)), 13.9%; in the data set on MvfR regulon [8] (read-out: PQS @50 uM (%)), 8.37%. For the same molecule, the activity at 50 µM in the data set on MvfR regulon [3] (read-out: pqsA @50 uM (%), compound at 50 uM) was found to be 7.97%; with MvfR regulon [5] it was 6.23%. Further, the activity at 10 µM in the data set with MvfR regulon [3] worked out at 1.55%. Besides, the inhibition of persistence result with PA14 is reported as “inhibit persistence”. In addition, the “binding to MvfR (in words)” value at MvfR (FIG. 1B) was “high affinity”. At MvfR (SPR), the “Signal Intensity Rmax” value was 26.52. Also, the “binding intensity relative to parent Compound 1” value on MvfR (SPR) was determined as 40 times. Further, the Kd (as a rule, the constant that tells how readily two partners part at equilibrium) on MvfR (Steady State Binding Affinity KD (μM), SPR, steady state) was 0.244 µM; on MvfR (Steady State Binding Affinity KD [M], SPR, steady state) it was 0.244 µM; at MvfR (setting [9]), ~0.25 µM and 0.25 µM.
